Measurements from article PMC8228537, “Acrylonitrile Derivatives against Trypanosoma cruzi: In Vitro Activity and Programmed Cell Death Study” (Pharmaceuticals, 2021).

Legend:
[1] = tested on: epimastigote stage of T. cruzi; assay: Antiparasitic activity, alamarBlue, epimastigotes; type: cell-based, Trypanosoma cruzi; settings: for Selectivity index (SI): ratio of CC50 for J774A.1 and IC50 for epimastigotes of T. cruzi
Method: Epimastigotes of Trypanosoma cruzi (Y strain) were used in this study and cultured in liver infusion tryptose (LIT) medium supplemented with 10% of foetal bovine serum (FBS) at 26 °C.
In a sterile 96-well plate, a serial dilution of acrylonitriles was carried out in LIT medium supplemented with 10% FBS with a final volume of 100 µL. Parasites were added to wells to reach a concentration of 10^5 parasites per well. Finally, a 10% of alamarBlue Cell Viability Reagent® (ThermoFisher Scientific, Waltham, MA, USA) was added into each well, and the plate was incubated for 72 h at 26°C.

[2] = tested on: J774A.1 murine macrophage cell line; assay: Cytotoxicity, alamarBlue, murine macrophages; type: cell-based; settings: J774A.1 murine macrophages, 24 h, mean ± SD
Method: (§1) The cytotoxicity was evaluated against murine macrophages (J774A.1) using the same method mentioned in the antiparasitic assay, based on the alamarBlue Cell Viability Reagent®. In a sterile 96-well plate, 10^4 cells per well were added, then, after the complete adhesion, serial dilutions of the 32 compounds, using a deep well plate, and a 10% of alamarBlue® were joined.

[3] = Cytotoxicity, alamarBlue, murine macrophages; type: cell-based; settings: mouse, J774A.1 murine macrophage cell line, J774A.1 murine macrophages, mean ± SD
Method: as §1

[4] = tested on: epimastigotes of Trypanosoma cruzi; assay: Mitochondrial membrane potential analysis (JC-1); type: cell-based; settings: 24 h with the IC90, JC-1, Tukey test, Figure 2
Method: The detection of variations in the mitochondrial membrane potential was evaluated with the JC-1 Mitochondrial Membrane Potential Assay Kit® (Cayman Chemical, Ann Arbor, MI, USA). In a 24-well plate, 500 µL of epimastigotes at 10^6 parasites per ml were added with the inhibitory concentration 90 (IC90) of the compounds. After 24 h of incubation at 26 °C, the epimastigotes were centrifuged (3000 rpm, 10 min, 4 °C), resuspended in 50µL of JC-1 buffer and added to a black 96-well plate with 5 µL of JC-1. After 30 min of incubation at 26 °C, the green and red fluorescence were measured using an EnSpire Multimode Plate Reader® (PerkinElmer). Results were expressed in percentage relative to negative control (without treatment) of the ratio 595/535 nm (J-aggregates/J-monomers).

[5] = tested on: epimastigotes of Trypanosoma cruzi; assay: ATP level analysis (CellTiter-Glo); type: cell-based; settings: 24 h with the IC90, CellTiter-Glo, Figure 3
Method: Variations in the level of ATP were measured with the CellTiter-Glo® Luminescent Cell Viability Assay (Promega, WI, USA). […] Then, in a white 96-well plate, the epimastigotes were resuspended in 25µL of culture media and mixed with 25 µL of the kit. After 10 min of incubation at room temperature, the luminescence was measured using an EnSpire Multimode Plate Reader® (PerkinElmer). The results were expressed in percentage of production of ATP level relative to the negative control (without any treatment).

In the case of `N#CC=CC(=O)N1C(=O)OC[C@H]1c1ccccc1` [Compound Q32, (Z)-(R,Z)-4-Oxo-4-(2-oxo-4-phenyloxazolidin-3-yl)but-2-enenitrile], the “Selectivity index (SI)” value [1] is reported as 0.78 and the CC50 [2] is reported as 2.89 ± 0.74 µM.
For `N#CC=CC(=O)N1C(=O)OC[C@H]1c1ccccc1` [Compound Q31, (E)-(R,E)-4-Oxo-4-(2-oxo-4-phenyloxazolidin-3-yl)but-2-enenitrile], the IC50 ([1]; epimastigote stage of T. cruzi (Y strain), 72 h, alamarBlue, mean ± SD, NA: not active) was 20.38 ± 0.13 µM, the “Selectivity index (SI)” value [1] was 0.51 and the CC50 [2] was 10.4 ± 1.06 µM.
With `O=C(Cn1ccnc1[N+](=O)[O-])NCc1ccccc1` [BENZ, benznidazole, reference compound] the CC50 at 24 h [3] was > 1500 µM, the “Variations in the mitochondrial membrane potential relative to negative control” value [4] was “decreasing the inter-membrane potential of the mitochondria” and the “Percentage of ATP level relative to untreated control” value [5] was 18.26%.
